# According to ChEMBL document CHEMBL4706484, “Apigenin-rivastigmine hybrids as multi-target-directed liagnds for the treatment of Alzheimer's disease” (Eur J Med Chem, 2020):
# The source made the active and inactive calls. The calls are words filed in the database; no cut-off is given here.
# Legend:
# Danio rerio [1] = species: Danio rerio; test: Antialzheimer activity against 3 dpf zebrafish model of AlCl3-induced AD assessed as motility by measuring change in speed at 1.4 ug/ml (reference value: 1.05 mm/s); format: functional; settings: dose 1.4 µg/ml
# [2] = Acute toxicity in 2 dpf zebrafish assessed as effect on liver at 1.39 to 12.5 ug/ml measured after 3 days; parameters: species or system Danio rerio; settings: in vivo, 72 h, dose 1.39-12.5 µg/ml, time 3 day
# [3] = Drug metabolism in human liver microsomes assessed as metabolite formation by UPLC-MS/MS analysis; format: ADME, Microsome
# [4] = Acute toxicity in 2 dpf zebrafish assessed as small or misshapen eyes at 1.39 to 12.5 ug/ml measured after 3 days; parameters: species or system Danio rerio; settings: in vivo, 72 h, dose 1.39-12.5 µg/ml, time 3 day
# [5] = Acute toxicity in 2 dpf zebrafish assessed as yolk sac absorption delay at 12.5 ug/ml measured after 3 days relative to control; parameters: species or system Danio rerio; settings: in vivo, 72 h, at 12.5 µg/mL, time 3 day
# [6] = Toxicity in 3 dpf zebrafish model of AlCl3-induced AD at 12.5 to 200 microg/ml; parameters: species or system Danio rerio; settings: in vivo, dose 12.5-200 µg/ml
# PC-12 = test: Neuroprotective activity against H2O2-induced cell injury in rat PC-12 cells assessed as increase in cell viability causing decrease in LDH content preincubated for 2 hrs followed by H2O2 addition and measured after 24 hrs by LDH assay; format: functional, cell-based; settings: dose 5-10 µM, time 26.0 hrs
# [7] = Acute toxicity in 2 dpf zebrafish assessed as abnormal pigmentation at 1.39 to 12.5 ug/ml measured after 3 days; parameters: species or system Danio rerio; settings: in vivo, 72 h, dose 1.39-12.5 µg/ml, time 3 day
# Danio rerio [8] = species: Danio rerio; test: Antialzheimer activity against 3 dpf zebrafish model of AlCl3-induced AD assessed as motility by measuring efficacy on speed change at 4.2 ug/ml relative to control; format: functional; settings: dose 4.2 µg/ml
# Danio rerio [9] = species: Danio rerio; test: Antialzheimer activity against 3 dpf zebrafish model of AlCl3-induced AD assessed as efficacy on motility distance at 1.4 ug/ml relative to control; format: functional; settings: dose 1.4 µg/ml
# Danio rerio [10] = species: Danio rerio; test: Antialzheimer activity against 3 dpf zebrafish model of AlCl3-induced AD assessed as motility by measuring change in speed at 4.2 ug/ml (reference value: 1.05 mm/s); format: functional; settings: dose 4.2 µg/ml
# Danio rerio [11] = species: Danio rerio; test: Antialzheimer activity against 3 dpf zebrafish model of AlCl3-induced AD assessed as motility by measuring change in speed at 12.5 ug/ml (reference value: 1.05 mm/s); format: functional; settings: dose 12.5 µg/ml
# Mus musculus [12] = test: Reversal of scopolamine-induced Kunming mouse model of memory impairment assessed as spontaneous alteration at 20 mg/kg by Y-maze test (reference value: 41.6 %); format: functional
# Cholinesterase [13] = target: T1, Cholinesterase (Homo sapiens, UniProt P06276); test: Inhibition of human serum BChE using acetylthiocholine iodide as substrate measured after 15 mins by Ellman's method; format: cell-free
# SH-SY5Y = test: Neuroprotective activity against amyloid beta (1 to 42 residues)-induced cell injury in human SH-SY5Y cells assessed as cell viability at 10 uM preincubated for 2 hrs followed by H2O2 addition and measured after 24 hrs by MTT assay (reference value: 52.3 %); format: functional; settings: time 26 hrs, read-out: Activity
# [14] = Cytotoxicity against human L02 cells assessed as cell viability at 50 uM measured after 72 hrs by MTT assay relative to control; format: cell-based; settings: read-out: Activity
# Danio rerio [15] = species: Danio rerio; test: Protection against amyloid beta (1 to 40 residues)-induced vascular injury in transgenic zebrafish assessed as efficacy on motility at 4.2 ug/ml relative to control; format: functional; settings: dose 4.2 µg/ml
# Danio rerio [16] = species: Danio rerio; test: Antialzheimer activity against 3 dpf zebrafish model of AlCl3-induced AD assessed as efficacy on motility distance at 12.5 ug/ml relative to control; format: functional; settings: dose 12.5 µg/ml
# Cholinesterase [17] = target: T1, Cholinesterase; test: Pseudo-irreversible inhibition of human serum BChE assessed as enzyme recovery activity at 0.1 times IC50 using diluted compound relative to control; format: cell-free; parameters: scale not given: the % may be the effect or the level left
# [18] = Acute toxicity in 2 dpf zebrafish assessed as body shape at 1.39 to 12.5 ug/ml measured after 3 days; parameters: species or system Danio rerio; settings: in vivo, 72 h, dose 1.39-12.5 µg/ml, time 3 day
# [19] = Acute toxicity in Kunming mouse at 1000 mg/kg; format: organism-based; settings: in vivo
# Acetylcholinesterase = target: T2, Acetylcholinesterase (Rattus norvegicus, UniProt P37136); test: Inhibition of rat cortex AChE using acetylthiocholine iodide as substrate measured after 15 mins by Ellman's method; format: tissue-based
# T2 sequence (P37136 whole entry): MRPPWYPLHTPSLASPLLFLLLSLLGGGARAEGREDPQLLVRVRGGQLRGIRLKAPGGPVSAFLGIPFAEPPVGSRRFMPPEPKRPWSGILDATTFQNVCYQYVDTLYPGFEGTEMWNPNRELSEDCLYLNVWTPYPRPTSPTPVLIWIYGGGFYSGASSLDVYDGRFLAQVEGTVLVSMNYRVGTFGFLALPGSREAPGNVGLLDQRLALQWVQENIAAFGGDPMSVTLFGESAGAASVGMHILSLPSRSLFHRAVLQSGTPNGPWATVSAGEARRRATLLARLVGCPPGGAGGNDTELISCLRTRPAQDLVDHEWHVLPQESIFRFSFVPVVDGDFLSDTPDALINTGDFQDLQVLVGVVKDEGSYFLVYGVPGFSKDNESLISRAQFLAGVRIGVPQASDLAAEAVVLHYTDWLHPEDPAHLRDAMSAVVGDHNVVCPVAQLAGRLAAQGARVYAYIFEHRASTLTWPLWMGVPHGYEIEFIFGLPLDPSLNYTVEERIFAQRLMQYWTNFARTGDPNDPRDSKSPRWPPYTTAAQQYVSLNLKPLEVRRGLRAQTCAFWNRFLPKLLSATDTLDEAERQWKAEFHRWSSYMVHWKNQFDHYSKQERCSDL
# [20] = Acute toxicity in 2 dpf zebrafish assessed as small or misshapen brain at 1.39 to 12.5 ug/ml measured after 3 days; format: tissue-based, Danio rerio; settings: in vivo, 72 h, dose 1.39-12.5 µg/ml, time 3 day
# Danio rerio [21] = species: Danio rerio; test: Antialzheimer activity against 3 dpf zebrafish model of AlCl3-induced AD assessed as change in motility distance at 1.4 ug/ml (reference value: 5204 mm); format: functional; settings: dose 1.4 µg/ml
# Cholinesterase [22] = target: T1, Cholinesterase; test: Pseudo-irreversible inhibition of human serum BChE assessed as enzyme recovery activity at IC50 using undiluted compound relative to control; format: cell-free; parameters: scale not given: the % may be the effect or the level left
# Danio rerio [23] = species: Danio rerio; test: Antialzheimer activity against 3 dpf zebrafish model of AlCl3-induced AD assessed as motility by measuring efficacy on speed change at 12.5 ug/ml relative to control; format: functional; settings: dose 12.5 µg/ml
# [24] = target: Amyloid-beta precursor protein (Homo sapiens) (UniProt P05067); test: Disaggregation of self-induced amyloid beta (1 to 42) (unknown origin) preformed fibrils at 25 uM by ThT fluorescence assay relative to control
# Mus musculus [25] = test: Reversal of scopolamine-induced Kunming mouse model of memory impairment assessed as spontaneous alteration at 5 mg/kg by Y-maze test; format: functional, organism-based
# Mus musculus [26] = test: Antialzheimer activity in scopolamine-induced Kunming mouse model of memory impairment assessed as Q30 bases ratio (raw data) in brain hippocampus at 10 mg/kg by illumina sequencing method (reference value: 93.53 %); format: functional
# Danio rerio [27] = species: Danio rerio; test: Protection against amyloid beta (1 to 40 residues)-induced vascular injury in transgenic zebrafish assessed as efficacy on motility at 12.5 ug/ml relative to control; format: functional; settings: dose 12.5 µg/ml
# [28] = Acute toxicity in 2 dpf zebrafish assessed as absent blood flow at 1.39 to 12.5 ug/ml measured after 3 days; format: tissue-based, Danio rerio; settings: 72 h, dose 1.39-12.5 µg/ml, time 3 day
# T1 sequence (P06276 whole entry, the tested form may be a part): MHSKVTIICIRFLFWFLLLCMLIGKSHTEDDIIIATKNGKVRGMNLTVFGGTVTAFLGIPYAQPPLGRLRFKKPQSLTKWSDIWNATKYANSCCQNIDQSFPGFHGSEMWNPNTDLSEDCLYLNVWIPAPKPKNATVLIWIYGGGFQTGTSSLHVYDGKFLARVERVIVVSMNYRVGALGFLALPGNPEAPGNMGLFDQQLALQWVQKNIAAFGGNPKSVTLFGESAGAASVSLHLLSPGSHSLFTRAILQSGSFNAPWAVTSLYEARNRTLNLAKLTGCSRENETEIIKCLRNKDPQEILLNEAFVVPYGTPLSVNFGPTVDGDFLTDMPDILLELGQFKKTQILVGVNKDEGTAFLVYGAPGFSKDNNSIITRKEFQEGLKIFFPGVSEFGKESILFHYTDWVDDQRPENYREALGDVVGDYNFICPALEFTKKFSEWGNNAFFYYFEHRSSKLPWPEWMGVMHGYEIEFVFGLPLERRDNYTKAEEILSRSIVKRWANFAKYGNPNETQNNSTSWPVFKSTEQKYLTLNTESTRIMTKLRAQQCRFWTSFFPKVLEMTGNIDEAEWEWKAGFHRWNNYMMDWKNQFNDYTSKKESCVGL
# Amyloid-beta precursor protein (Homo sapiens), sequence (P05067 whole entry): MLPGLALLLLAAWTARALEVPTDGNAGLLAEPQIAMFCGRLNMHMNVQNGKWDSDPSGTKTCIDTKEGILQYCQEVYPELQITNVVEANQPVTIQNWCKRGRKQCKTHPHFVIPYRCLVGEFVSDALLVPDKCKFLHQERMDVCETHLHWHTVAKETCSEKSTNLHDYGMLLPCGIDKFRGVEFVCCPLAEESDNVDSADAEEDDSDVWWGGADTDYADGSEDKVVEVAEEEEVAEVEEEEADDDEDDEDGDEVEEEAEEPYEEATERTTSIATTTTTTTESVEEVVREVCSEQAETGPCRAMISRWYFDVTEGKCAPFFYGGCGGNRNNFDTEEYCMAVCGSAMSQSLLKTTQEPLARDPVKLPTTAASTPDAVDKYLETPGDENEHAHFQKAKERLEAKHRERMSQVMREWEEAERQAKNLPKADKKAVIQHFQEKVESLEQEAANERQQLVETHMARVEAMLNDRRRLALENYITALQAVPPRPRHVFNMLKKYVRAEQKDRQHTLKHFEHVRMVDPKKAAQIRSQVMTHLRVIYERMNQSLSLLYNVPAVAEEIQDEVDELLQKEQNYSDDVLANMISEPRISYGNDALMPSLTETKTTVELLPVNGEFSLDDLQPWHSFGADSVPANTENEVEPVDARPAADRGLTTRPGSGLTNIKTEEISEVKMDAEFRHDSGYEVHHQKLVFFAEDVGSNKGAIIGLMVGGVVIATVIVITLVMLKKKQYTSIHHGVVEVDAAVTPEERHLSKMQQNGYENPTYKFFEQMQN
structure (smiles),measurement,setting,value
CCN(C)C(=O)Oc1ccc(-c2cc(=O)c3c(O)cc(OC(=O)N(C)CC)cc3o2)cc1,Activity,Danio rerio [1],1.8 millimeter/sec
same,Activity,[2],Non-Toxic
same,Drug metabolism,[3],Metabolite_Detected
same,Activity,[4],Non-Toxic
same,Activity,[5],93.3%
same,Activity,[6],Non-Toxic
same,Activity,PC-12,Dose-dependent effect
same,Activity,[7],Non-Toxic
same,Efficacy,Danio rerio [8],72%
same,Efficacy,Danio rerio [9],59%
same,Activity,Danio rerio [10],1.98 millimeter/sec
same,Activity,Danio rerio [11],2.17 millimeter/sec
same,Activity,Mus musculus [12],57.1%
same,IC50,Cholinesterase [13],16.1 µM
same,viability at 10 µM,SH-SY5Y,72.3%
same,"viability at 72 h, 50 µM",[14],59.7%
same,Efficacy,Danio rerio [15],27%
same,Efficacy,Danio rerio [16],73%
same,Activity,Cholinesterase [17],44.8%
same,Activity,[18],Non-Toxic
same,Activity,[19],Non-Toxic
same,IC50,Acetylcholinesterase,4.7 µM
same,Activity,[20],Non-Toxic
same,Activity,Danio rerio [21],6432 mm
same,Activity,Cholinesterase [22],50.6%
same,Efficacy,Danio rerio [23],87%
same,Activity,[24],66.2%
same,Activity,Mus musculus [25],inactive
same,Activity,Mus musculus [26],92.76%
same,Efficacy,Danio rerio [27],64%
same,Activity,[28],Non-Toxic
